Measurements reported in patent publication US9040713B2, “Methods of managing blood sugar levels and compositions related thereto” (EMORY UNIVERSITY, priority 2010, dated 2015).
Entries after “also recorded” stand apart in the source; their conditions may differ.

How the values were obtained:
GST-IRTK = biological target: T1, GST-IRTK (Homo sapiens, UniProt P06213); assay: Partial proteolysis; type: binding; conditions: compound 50 μM or ATP-γ-S 5 μM; limited trypsin (or chymotrypsin) digestion
T1 construct: GST-tagged IRTK (GST-IRTK, a.a. 1011-1382); purchased Invitrogen
T1 sequence (P06213 1011-1382): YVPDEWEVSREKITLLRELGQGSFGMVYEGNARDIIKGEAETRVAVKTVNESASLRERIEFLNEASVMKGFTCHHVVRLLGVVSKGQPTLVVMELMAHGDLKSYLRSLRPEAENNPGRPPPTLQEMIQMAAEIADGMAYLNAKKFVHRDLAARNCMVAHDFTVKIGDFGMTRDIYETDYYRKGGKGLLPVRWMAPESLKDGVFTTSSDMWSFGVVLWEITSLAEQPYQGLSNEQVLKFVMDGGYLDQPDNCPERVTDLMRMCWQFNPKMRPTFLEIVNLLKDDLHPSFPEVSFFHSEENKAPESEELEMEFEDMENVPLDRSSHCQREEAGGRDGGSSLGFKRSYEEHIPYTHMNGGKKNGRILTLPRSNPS
Method: 200 ng GST-IRTK was subjected to limited trypsin digestion in the presence or absence of 50 μM compound with 50 mM tris-HCL (pH8.2) and 20 mM CacCl2. The sample was separated on a SDS-polyacrylamide gel and stained by silver.
Several small molecules bind to the intracellular kinase domain of IR (IRTK) and provoke its activation. DDN might also interact with the IRTK to activate IR. To test this possibility, an UV-absorption spectra analysis was performed using recombinant IRTK. While the GST-tagged IRTK (GST-IRTK, a.a. 1011-1382) had no absorption from 200 nm to 800 nm, addition of DDN, but not its structural related analogue naptho[2,3-d]thiazole-4,9-dione-2-[(4-chlorophenyl)amino] […] Partial proteolysis analysis was also performed to confirm the DDN/IRTK interaction. Recombinant GST-tagged IRTK was incubated with either DMSO or DDN, followed by limited trypsin digestions. In DMSO treatment, GST-IRTK was digested into several smaller fragments of various molecular weights. […] Whereas a band of ˜37 kDa presented strongly in the ATP-γ-S incubated IRTK, a band of ˜30 kDa was found in the control samples but attenuated in the ATP-γ-S-treated sample.
To evaluate if 4524-E7 directly binds to the IR kinase domain, a partial proteolysis assay was performed with recombinant IRTK domain using trypsin or chymotrypsin, which was used before to characterize the interaction between IR and its small molecular ligand DAQ B1. Recombinant GST-tagged IRTK with either DMSO, 50 μM 4524-E7 or ATP-γ-S, were incubated and followed by limited trypsin or chymotrypsin digestion. Under DMSO treatment, GST-IRTK was quickly digested by both trypsin and chymotrypsin into several small fragments with various molecular weights (FIG. 10B). […] To test whether 4524-E7 selectively elevates IR kinase activities, an in vitro IR, IGFR, and EGFR kinase assays were performed using histone as the substrate.

IR [1] = biological target: T2, IR (Homo sapiens, UniProt P06213); assay: Cell-based ELISA of IR tyrosine phosphorylation in CHO-IR cells; parameters: expressed in transfected cells; host or cells: CHO (CHO-IR, gift from Dr. Nicholas Webster, UCSD); conditions: 5 μM, 30 min, ELISA; compared to the parental compound
T2 sequence (P06213 763-1382 limits assumed): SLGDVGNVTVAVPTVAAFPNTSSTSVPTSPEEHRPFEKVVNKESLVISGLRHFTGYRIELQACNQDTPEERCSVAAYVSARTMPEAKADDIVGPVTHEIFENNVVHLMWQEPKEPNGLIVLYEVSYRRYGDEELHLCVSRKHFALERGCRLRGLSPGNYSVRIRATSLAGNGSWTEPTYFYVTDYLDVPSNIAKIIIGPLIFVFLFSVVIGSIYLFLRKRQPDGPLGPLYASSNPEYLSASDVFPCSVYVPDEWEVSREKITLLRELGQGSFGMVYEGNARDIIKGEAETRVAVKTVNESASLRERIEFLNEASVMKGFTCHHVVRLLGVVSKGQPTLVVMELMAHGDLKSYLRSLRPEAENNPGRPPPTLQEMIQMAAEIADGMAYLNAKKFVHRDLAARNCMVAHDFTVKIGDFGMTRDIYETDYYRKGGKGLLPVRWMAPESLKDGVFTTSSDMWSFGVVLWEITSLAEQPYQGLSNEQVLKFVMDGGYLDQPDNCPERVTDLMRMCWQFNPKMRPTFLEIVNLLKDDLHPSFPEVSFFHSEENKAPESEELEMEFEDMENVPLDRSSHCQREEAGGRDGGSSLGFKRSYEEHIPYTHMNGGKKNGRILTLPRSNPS
T2 sequence (P06213 28-758 limits assumed): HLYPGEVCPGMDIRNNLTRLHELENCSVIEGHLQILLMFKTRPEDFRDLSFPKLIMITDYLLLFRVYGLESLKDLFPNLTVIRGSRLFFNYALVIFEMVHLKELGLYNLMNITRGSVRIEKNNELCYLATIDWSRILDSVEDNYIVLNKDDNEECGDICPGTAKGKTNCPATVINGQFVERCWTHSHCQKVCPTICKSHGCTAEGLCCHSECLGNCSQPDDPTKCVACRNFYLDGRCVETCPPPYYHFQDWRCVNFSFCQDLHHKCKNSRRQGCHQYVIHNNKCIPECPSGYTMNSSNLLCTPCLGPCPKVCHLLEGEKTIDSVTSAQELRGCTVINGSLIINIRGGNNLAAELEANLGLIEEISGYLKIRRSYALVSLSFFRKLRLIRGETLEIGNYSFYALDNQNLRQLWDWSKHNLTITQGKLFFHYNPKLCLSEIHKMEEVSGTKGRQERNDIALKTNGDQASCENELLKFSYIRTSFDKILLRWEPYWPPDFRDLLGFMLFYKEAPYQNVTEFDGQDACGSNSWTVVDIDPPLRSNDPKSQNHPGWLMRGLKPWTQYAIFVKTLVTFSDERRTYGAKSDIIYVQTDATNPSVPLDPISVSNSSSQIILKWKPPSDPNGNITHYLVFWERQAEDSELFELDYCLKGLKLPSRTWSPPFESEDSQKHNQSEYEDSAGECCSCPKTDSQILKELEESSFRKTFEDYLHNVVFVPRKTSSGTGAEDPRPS
Method: A cell-based screening assay was developed with Chinese hamster ovary cells stably transfected with IR (CHO-IR) by using an ELISA to determine the IR tyrosine phosphorylation. […] Other 1,4-Napthoquinones that are structurally related to 4524-E7 were evaluated.
CHO-IR cells were seeded in a 96-well plate at 15,000 cells per well in […] of 0.1% FBS medium with 0.1% FBS. […] Cells were lysed, and phosphorylated receptors were captured with pY20 immobilized on ELISA plates. Bound receptors were washed, then detected using an anti-IR beta antibody, followed by an horseradish peroxidase-conjugated secondary antibody and colorimetric detection with 3,3′,5,5′-tetramethylbenzidine.
(§1) A cell-based ELISA assay was developed with an IR stably transfected Chinese Hamster Ovary (CHO-IR) cell line. […] The cell lysates were subjected to the sandwich ELISA using immobilized anti-phosphotyrosine antibody and anti-IR antibody.

IR [2] = biological target: T2, IR; assay: Immunoblotting of IR phosphorylation and downstream signaling in CHO-IR cells; type: cell-based; parameters: expressed in transfected cells; host or cells: CHO (CHO-IR, gift from Dr. Nicholas Webster, UCSD); conditions: 5 μM, 30 min
Method: The cell lysates were analyzed by immunoblotting with anti-phospho-IR antibodies, or immunoprecipitated by PY20 and analyzed using anti-IR and anti-IRS-1, respectively. […] The cell lysates were analyzed by immunoblotting with anti-pIGF-1R and anti-pEGFR. […]
as §1

SMILES | protection of IRTK from proteolysis (GST-IRTK) | IR phosphorylation, 4524-E7 derivatives (IR [1]) | IR tyrosine phosphorylation (IR [2])
Nc1ncnc2c1ncn2[C@@H]1O[C@H](COP(=O)(O)OP(=O)(O)OP(O)(O)=S)[C@@H](O)[C@H]1O [ATP-γ-S, reference compound] | altered the proteolysis pattern; also recorded: digestion pattern was altered |  | 
O=C1c2ccccc2C(=O)c2sc(Nc3ccc(Cl)cc3Cl)nc21 [compound 7, 2-((2,4-dichlorophenyl)amino)naphtho[2,3-d]thiazole-4,9-dione] |  | improved activity | triggered IR tyrosine phosphorylation
